By Km is commonly meant the concentration of substrate that gives half-maximal velocity.

The values that follow come from article PMC3904705, “In vivo monoubiquitination of anaplerotic phosphoenolpyruvate carboxylase occurs at Lys624 in germinating sorghum seeds” (Journal of Experimental Botany, 2013).

The chains are these.
B1: DeUB-PEPC (in vitro deubiquitinated p107 homotetrameric PEPC of germinating sorghum seeds; CP21) (Sorghum bicolor) (protein)
chain: MPERHQSIDAQLRLLAPGKVSEDDKLVEYDALLVDRFLDILQDLHGPHLREFVQECYELSAEYENDRDEARLGELGSKLTSLPPGDSIVVASSFSHMLNLANLAEEVQVAQRRRIKLKRGDFADEASAPTESDIEETLKRLVSQLGKSREEVFDALKNQTVDLVFTAHPTQSVRRSLLQKHGRIRNCLRQLYAKDITADDKQELDEALQREIQAAFRTDEIRRTPPTPQDEMRAGMSYFHETIWKGVPKFLRRIDTALKNIGINERLPYNAPLIQFSSWMGGDRDGNPRVTPEVTRDVCLLARMMAANLYFSQIEDLMFELSMWRCSDELRIRADELHRSSKRAAKHYIEFWKQVPPNEPYRVILGDVRDKLYYTRERSRHLLSSGISEIPEEATFTNVEQFLEPLELCYRSLCACGDKPIADGSLLDFLRQVFNFGLALVKLDIRQESDRHTDVLDSITTHLGIGSYAEWSEEKRQDWLLSELRGKRPLFGSDLPQTEETADVLGTFHVLAELPADCFGAYIISMATAPSDVLAVELLQRECHVKQPLRVVPLFEKLADLEAAPAAVARLFSIDWYMNRINGKQEVMIGYSDSGKDAGRLSAAWQMYKAQEELIKVAKHYGVKLTMFHGRGGTVGRGGGPTHLAILSQPPDTIHGSLRVTVQGEVIEHSFGEELLCFRTLQRYTAATLEHGMHPPISPKPEWRALMDEMAVVATKEYRSIVFQEPRFVEYFRSATPETEYGRMNIGSRPSKRKPSGGIESLRAIPWIFAWTQTRFHLPVWLGFGAAIKHIMQKDIRNIHVLKEMYNEWPFFRVTLDLLEMVFAKGDPGIAAVYDKLLVAEDLQSFGEQLRKNYEETKELLLQVAGHKDVLEGDPYLKQRLRLRESYITTLNVCQAYTLKRIRDPSFQVSPQPPLSKEFTDESQPVELVQLNQQSEYAPGLEDTLILTMKGIAAGMQNTG
notes: p107 homotetramer; not phosphorylated at Ser7

In one data set the target is T1, DeUB-PEPC (in vitro deubiquitinated p107 homotetrameric PEPC of germinating sorghum seeds; CP21) (Sorghum bicolor, UniProt P29195).
T1 construct: p107 homotetramer; not phosphorylated at Ser7
T1 sequence (P29195 1-960): B1 chain
The data set can be described thus: biochemical. Conditions: pH 7.3, 0.1 mM PEP; 2000 µM. Also noted: PEPC activity of purified enzyme with 2 mM metabolite effector at subsaturating 0.1 mM PEP, relative to control. How it is done:
(§1) The impact of various metabolite effectors (2mM each) on the activity of the purified, monoubiquitinated heterotetrameric sorghum seed PEPC (UB-PEPC) versus the in vitro deubiquitinated homotetrameric enzyme (deUB-PEPC) was assessed using suboptimal assay conditions (0.1mM PEP, pH 7.3 and 8.0). With the exception of L-malate, monoubiquitination of germinating sorghum seed PEPC (CP21) exerted little to no influence in the response to the metabolites tested (Supplementary Table S2 at JXB online). […] In addition, the K m(PEP) value of UB-PEPC appeared to be slightly higher than that of deUB-PEPC, although the differences were not statistically significant (Table 1). Similarly, monoubiquitination of COS and harsh hakea Class-1 PEPCs is inhibitory, as it enhances sensitivity to allosteric inhibitors such as L-malate and L-aspartate, while interfering with the enzyme’s ability to bind PEP ([Uhrig et al., 2008]; [Shane et al., 2013]). Apparent K m and IC50 (concentration of inhibitor producing 50% inhibition) values were calculated using a computer kinetics program as previously described ([Tripodi et al., 2005]). All kinetic parameters are the means of three independent experiments and are reproducible to within ±15% (SE) of the mean value. Stock solutions of metabolites were made equimolar with MgCl2 and adjusted to pH 7.5.
`Nc1ncnc2c1ncn2[C@@H]1O[C@H](COP(=O)(O)OP(=O)(O)OP(=O)(O)O)[C@@H](O)[C@H]1O` [ATP]: the “% of control remaining” value turned out to be 88%.

Staying with this data set, now noted: pH 7.3, 0.1 mM PEP; read-out: % of control remaining.
With `O=P(O)(O)OC1O[C@H](CO)[C@@H](O)[C@H](O)[C@H]1O` (stereo partly shown) [Glc-1-P], the remaining activity at 2000 µM was determined as 111%.

For `O=C(O)C[C@H](C(=O)O)[C@@H](O)C(=O)O` [isocitrate], the remaining activity at 2000 µM is 47%.

With `O=C[C@H](O)[C@H](O)[C@H](O)COP(=O)(O)O` [Ribose-5-P], the remaining activity at 2000 µM was 98%.

As to `O=P(O)(O)OCC(O)CO` (stereo not shown) [Glycerol-3-P], the remaining activity at 2000 µM was found to be 108%.

For `N[C@@H](CC(=O)O)C(=O)O` [Aspartate], the remaining activity at 2000 µM amounted to 91%.

Turning to `O=C(O)C[C@H](O)C(=O)O` [L-malate], the remaining activity at 2000 µM was 67%.

Take `O=P(O)(O)OC[C@H]1OC(O)[C@H](O)[C@@H](O)[C@@H]1O` (stereo partly shown) [Glc-6-P]: the remaining activity at 2000 µM was found to be 112%.

The target in the next data set is T2, UB-PEPC (purified monoubiquitinated p110:p107 heterotetrameric PEPC of germinating sorghum seeds; CP21) (Sorghum bicolor, UniProt P29195).
T2 construct: native, purified from 48 h germinated seeds, untagged; intact N-terminus, not phosphorylated at Ser7; heterotetramer ~460 kDa of p110 and p107 in equivalent ratio; p110 = p107 monoubiquitinated at Lys624
T2 sequence (P29195 1-960): B1 chain
Put plainly: biochemical. More on the design: PEPC activity of purified enzyme with 2 mM metabolite effector at subsaturating 0.1 mM PEP, relative to control. Conditions: pH 7.3, 0.1 mM PEP; read-out: % of control remaining. As for the experimental part:
as §1
Consider `O=P(O)(O)OC1O[C@H](CO)[C@@H](O)[C@H](O)[C@H]1O` (stereo partly shown) [Glc-1-P], for which the remaining activity at 2000 µM stood at 115%.

With `O=C(O)C[C@H](C(=O)O)[C@@H](O)C(=O)O` [isocitrate], the remaining activity at 2000 µM was 47%.

Regarding `O=C[C@H](O)[C@H](O)[C@H](O)COP(=O)(O)O` [Ribose-5-P], the remaining activity at 2000 µM was found to be 98%.

With `O=P(O)(O)OCC(O)CO` (stereo not shown) [Glycerol-3-P], the remaining activity at 2000 µM was determined as 107%.

On to `N[C@@H](CC(=O)O)C(=O)O` [Aspartate], for which the remaining activity at 2000 µM amounted to 94%.

Take `O=C(O)C[C@H](O)C(=O)O` [L-malate]: the remaining activity at 2000 µM was 53%.

On to `O=P(O)(O)OC[C@H]1OC(O)[C@H](O)[C@@H](O)[C@@H]1O` (stereo partly shown) [Glc-6-P], for which the remaining activity at 2000 µM came out at 127%.

The next data set deals with T1, DeUB-PEPC (in vitro deubiquitinated p107 homotetrameric PEPC of germinating sorghum seeds; CP21). Put plainly: spectrophotometric, NADH at […] nm, coupled with malate dehydrogenase. In kind it is biochemical. The note with it: read-out: pH 7.3 / DeUB-PEPC.
As for `O=C(O)C[C@H](C(=O)O)[C@@H](O)C(=O)O` [isocitrate], the IC50 is 1.37 ± 0.12 mM.

In the case of `O=C(O)C[C@H](O)C(=O)O` [L-malate], the IC50 turned out to be 3.62 ± 0.24 mM.

Substrate in the next data set: C=C(OP(=O)(O)O)C(=O)O
Put plainly: purified protein. Type of data set: biochemical, Sorghum bicolor. Conditions: pH 8.0, 25 °C, 5 mM NaHCO3, 5 mM MgCl2, apparent Km, deubiquitinated enzyme.
For the molecule B1, the Km worked out at 0.036 ± 0.005 mM.

For a further data set, the target named is T1, DeUB-PEPC (in vitro deubiquitinated p107 homotetrameric PEPC of germinating sorghum seeds; CP21). Put plainly: biochemical. More on the design: PEPC activity with 2 mM metabolite at subsaturating 0.1 mM PEP, as per cent of control. Conditions: pH 8.0, 0.1 mM PEP; 2000 µM. How it is done:
as §1
With `Nc1ncnc2c1ncn2[C@@H]1O[C@H](COP(=O)(O)OP(=O)(O)OP(=O)(O)O)[C@@H](O)[C@H]1O` [ATP], the “% of control remaining” value is on record as 111%.

Staying with this data set, now noted: pH 8.0, 0.1 mM PEP; read-out: % of control remaining.
As for `O=P(O)(O)OC1O[C@H](CO)[C@@H](O)[C@H](O)[C@H]1O` (stereo partly shown) [Glc-1-P], the remaining activity at 2000 µM was 116%.

As to `O=C(O)C[C@H](C(=O)O)[C@@H](O)C(=O)O` [isocitrate], the remaining activity at 2000 µM worked out at 38%.

`O=C[C@H](O)[C@H](O)[C@H](O)COP(=O)(O)O` [Ribose-5-P]: the remaining activity at 2000 µM is 105%.

As for `O=P(O)(O)OCC(O)CO` (stereo not shown) [Glycerol-3-P], the remaining activity at 2000 µM came to 120%.

In the case of `N[C@@H](CC(=O)O)C(=O)O` [Aspartate], the remaining activity at 2000 µM was 109%.

Turning to `O=C(O)CC(O)C(=O)O` (stereo not shown) [Malate], the remaining activity at 2000 µM is 93%.

Regarding `O=P(O)(O)OC[C@H]1OC(O)[C@H](O)[C@@H](O)[C@@H]1O` (stereo partly shown) [Glc-6-P], the remaining activity at 2000 µM amounted to 120%.

Another data set deals with T2, UB-PEPC (purified monoubiquitinated p110:p107 heterotetrameric PEPC of germinating sorghum seeds; CP21). The data set can be described thus: biochemical. Also noted: PEPC activity with 2 mM metabolite at subsaturating 0.1 mM PEP, as per cent of control. The note with it: pH 8.0, 0.1 mM PEP; read-out: % of control remaining. How it is done: as §1
Take `O=P(O)(O)OC1O[C@H](CO)[C@@H](O)[C@H](O)[C@H]1O` (stereo partly shown) [Glc-1-P]: the remaining activity at 2000 µM came out at 116%.

Take `O=C(O)C[C@H](C(=O)O)[C@@H](O)C(=O)O` [isocitrate]: the remaining activity at 2000 µM came to 38%.

For the molecule `O=C[C@H](O)[C@H](O)[C@H](O)COP(=O)(O)O` [Ribose-5-P], the remaining activity at 2000 µM came out at 105%.

With `O=P(O)(O)OCC(O)CO` (stereo not shown) [Glycerol-3-P], the remaining activity at 2000 µM was found to be 124%.

As to `N[C@@H](CC(=O)O)C(=O)O` [Aspartate], the remaining activity at 2000 µM was 109%.

Consider `O=C(O)CC(O)C(=O)O` (stereo not shown) [Malate], for which the remaining activity at 2000 µM was determined as 93%.

For the molecule `O=P(O)(O)OC[C@H]1OC(O)[C@H](O)[C@@H](O)[C@@H]1O` (stereo partly shown) [Glc-6-P], the remaining activity at 2000 µM was determined as 121%.

A further data set deals with p107, non-ubiquitinated 107 kDa plant-type PEPC (PTPC) subunit encoded by sorghum CP21 (Sorghum bicolor (endogenous in germinated seeds)) (UniProt P29195). The data set can be described thus: SEC; Superdex-200 HR 16/60 gel filtration FPLC (calibrated column) of native PEPC purified from 48 h germinated sorghum seeds, in buffer E (50 mM HEPES-KOH pH 8.0, 5 mM MgCl2, 1 mM DTT, 20% glycerol, 100 mM KCl, phosphatase inhibitors); fractions immunoblotted with anti-COS PTPC; native molecular mass estimated as ~460 kDa.
Settings: not given
With “p110, 110 kDa plant-type PEPC (PTPC) subunit encoded by sorghum CP21, monoubiquitinated at Lys624 (from UniProt P29195 1-960) (enzyme)”, the stoichiometry N (subunits in the oligomer) was 4.
